Measurements: patent publication US9370507B2, “Pyridonyl guanidine F1F0-ATPase inhibitors and therapeutic uses thereof” (Lycera Corporation, priority 2010, dated 2016)

What was measured:
[1] = target: T1, F1F0-ATPase (Bos taurus, UniProt P13621); assay: Inhibition of F1F0-ATPase activity in synthesizing ATP; format: biochemical; settings: inhibition of ATP synthesis; read-out: ATP Syn IC50
T1 construct: from tissue
Description: (§1) The compounds listed in Table 4 were tested for activity against F1F0-ATPase by measuring the ability of the compounds to inhibit ATP synthesis. In addition, the compounds were assessed for cytotoxicity in Ramos cells Inhibition of F1F0-ATPase activity in synthesizing ATP and cytotoxicity in Ramos cells were measured according to the procedures described in K. M. Johnson et al. Chemistry & Biology 2005, 12, 485-496.

[2] = test system: Ramos cells; assay: Cytotoxicity in Ramos cells; format: cell-based; settings: Homo sapiens, read-out: Ramos Cell EC50
Description: as §1

Row | SMILES | IC50 [1] | EC50 [2]
1 | CC(NC(=NC(=O)c1ccc(C(F)(F)F)cc1)Nc1cccc(O)n1)c1ccccc1Cl (stereo not shown) [Compound A-67] | < 10 µM | < 10 µM
2 | O=C(/N=C(/NCC(F)(F)F)Nc1cccc(O)n1)c1ccc(C(F)(F)F)cc1 [Compound A-52] | < 10 µM | < 10 µM
3 | O=C(/N=C(\Nc1cccc(C(F)(F)F)c1)Nc1cccc(O)n1)c1ccc(C(F)(F)F)cc1 [Compound A-1] | < 10 µM | < 10 µM
4 | O=C(/N=C(/Nc1cccc(Cl)c1)Nc1cccc(O)n1)c1ccc(Cl)cc1 [Compound A-25] | < 10 µM | > 10 µM
5 | O=C(/N=C(/NCc1ccc(F)cc1)Nc1cccc(O)n1)c1ccc(C(F)(F)F)cc1 [Compound A-85] | < 10 µM | < 10 µM
6 | O=C(/N=C(/NCc1cccc(F)c1F)Nc1cccc(O)n1)c1ccc(C(F)(F)F)cc1 [Compound A-86] | < 10 µM | < 10 µM
7 | O=C(/N=C(/NCC1CCCCC1)Nc1cccc(O)n1)c1ccc(C(F)(F)F)cc1 [Compound A-42] | < 10 µM | < 10 µM
8 | O=C(/N=C(\NCC(F)(F)F)Nc1cccc(O)n1)c1ccc(Cl)cc1 [Compound A-56] | < 10 µM | < 10 µM
9 | O=C(N/C(=N\c1cccc(O)n1)Nc1ccc(F)c(Cl)c1)c1ccc(F)c(F)c1 [Compound A-9] | > 10 µM | > 10 µM
10 | CC(C)(C)N/C(=N/C(=O)c1ccc(C(F)(F)F)cc1)Nc1cccc(O)n1 [Compound A-41] | < 10 µM | < 10 µM
11 | CCC(C)(C)N/C(=N/C(=O)c1ccc(Cl)cc1)Nc1cccc(O)n1 [Compound A-102] | < 10 µM | < 10 µM
12 | O=C(/N=C(\Nc1cccc(O)n1)NC1CCCC1)c1ccc(F)c(F)c1 [Compound A-95] | < 10 µM | < 10 µM
13 | O=C(/N=C(/Nc1cccc(O)n1)NC1CC1)c1ccc(Cl)c(F)c1 [Compound A-50] | < 10 µM | > 10 µM
14 | O=C(/N=C(/Nc1cccc(C(F)(F)F)c1)Nc1cccc(O)n1)c1cccc(C(F)(F)F)c1 [Compound A-17] | < 10 µM | < 10 µM
15 | O=C(/N=C(/Nc1cccc(C(F)(F)F)c1)Nc1cccc(O)n1)c1ccc(Cl)c(F)c1 [Compound A-18] | < 10 µM | < 10 µM
16 | CC1CCC(N/C(=N/C(=O)c2ccc(C(F)(F)F)cc2)Nc2cccc(O)n2)CC1 (stereo not shown) [Compound A-29] | < 10 µM | < 10 µM

Continued, in another order:

Row | IC50 [1] | SMILES | EC50 [2]
17 | < 10 µM | N#Cc1ccccc1S(=O)(=O)Nc1cccc(N/C(=N\C(=O)c2ccc(Cl)cc2)NCc2ccc(Cl)cc2F)n1 [Compound A-138] | < 10 µM
18 | < 10 µM | CC(C)N/C(=N/C(=O)c1ccc(Cl)cc1)Nc1cccc(O)n1 [Compound A-109] | > 10 µM
19 | < 10 µM | CC(C)(C)N/C(=N/C(=O)c1ccc(Cl)cc1)Nc1cccc(NS(=O)(=O)CC(F)(F)F)n1 [Compound A-124] | < 10 µM
20 | < 10 µM | CC(=O)Nc1cccc(N/C(=N\C(=O)c2ccc(Cl)cc2)NCC(C)(C)C)n1 [Compound A-143] | < 10 µM
21 | > 10 µM | O=C(/N=C(\Nc1cccc(O)n1)NC1CCOCC1)c1ccc(Cl)cc1 [Compound A-104] | > 10 µM
22 | < 10 µM | CC(C)(C)CN/C(=N/C(=O)c1ccc(Cl)cc1)Nc1cccc(NS(=O)(=O)c2cccnc2)n1 [Compound A-144] | > 10 µM
23 | < 10 µM | CC1(N/C(=N/C(=O)c2ccc(Cl)cc2)Nc2cccc(NS(=O)(=O)CC(F)(F)F)n2)CCC1 [Compound A-126] | < 10 µM
24 | < 10 µM | CCS(=O)(=O)Nc1cccc(N/C(=N\C(=O)c2ccc(C(F)(F)F)cc2)NCc2ccccc2C(F)(F)F)n1 [Compound A-115] | < 10 µM
25 | > 10 µM | Cn1cnc(S(=O)(=O)Nc2cccc(N/C(=N\C(=O)c3ccc(Cl)cc3)NCC(C)(C)C)n2)c1 [Compound A-145] | > 10 µM
26 | < 10 µM | O=C(/N=C(\Nc1cccc(O)n1)NC1CCC1)c1ccc(F)c(F)c1 [Compound A-108] | > 10 µM
